# According to PubChem BioAssay AID1915 (Broad Institute, 2009):
# Inconclusive results are not listed.
# Test system: Group A Streptococcus UMAA2166 viability, BacTiterGlo luminescence, 6 h
# Assay: Group A Streptococcus viability loss, dose response, counter-screen for streptokinase expression inhibitor project, luminescence, BacTiterGlo (AID 1915)
row,SMILES,IC50 [µM]
1,CN(C)c1ccnc2c[cH-]cc12.[Fe].c1ccc(-[c-]2[c-](-c3ccccc3)[c-](-c3ccccc3)[c-](-c3ccccc3)[c-]2-c2ccccc2)cc1 (configuration not stated),8.69
2,CNC(CC(C)C)C(=O)NC1C(=O)NC(CC(N)=O)C(=O)NC2C(=O)NC3C(=O)NC(C(=O)NC(C(=O)O)c4cc(O)cc(O)c4-c4cc3ccc4O)C(O)c3ccc(c(Cl)c3)Oc3cc2cc(c3OC2OC(CO)C(O)C(O)C2OC2CC(C)(N)C(O)C(C)O2)Oc2ccc(cc2Cl)C1O (configuration not stated),0.341
